Among the data in patent US20260327224A1, “SUBSTITUTED PYRIDOTRIAZOLE COMPOUND, AND PREPARATION METHOD THEREFOR AND USE THEREOF” (ORIGIANT PHARMACEUTICAL CO., LTD., priority 2023, published 2026) are EC50 values, retold here.

For this assay, the system named is HT-29 cells (colon cancer cells). The assay can be described thus: In vitro assay for protection of HT-29 cells from necroptosis (TNFα/Smac mimetic/Z-VAD-FMK, CCK-8). The format is cell-based. Particulars: Homo sapiens, Protective Activity Against Necroptosis, TNFα/Smac mimetic/Z-VAD-FMK induced, 24 h. From the text:
Z′=1−3(SDmin+SDmax)/(AVEmax−AVEmin) • wherein: • Min is the positive control Data, and Max is the negative control DMSO Data. • SD is the standard deviation, and AVE is the average. In Vitro Assay for Protection of HT-29 Cells from Necroptosis:
1) Experimental Materials
DMEM medium was purchased from Gibco; penicillin-streptomycin was purchased from Hyclone; TNFα was purchased from Peprotech; Smac mimetic and Z-VAD-FMK were purchased from Selleck; and CCK-8 was purchased from Medchem Express.
HT-29 cells (colon cancer cells) were cultured in DMEM+10% FBS+penicillin/streptomycin. For the experiment, HT-29 cells in the logarithmic phase were collected and seeded into 96-well plates at a specific density (typically 8×10^3 cells/well for adherent cells). The cells were cultured overnight in an incubator at 37° C. with 5% CO2. On the following day, the test compound was diluted with culture medium to the corresponding concentrations and added into the 96-well plate, with 3 replicate wells for each sample. A solvent control group and a blank control group containing only culture medium were set simultaneously. The spiked cells were induced with a combination of TNFα/Smac mimetic/Z-VAD-FMK for 24 h. Subsequently, 10 μL of CCK8 solution was added to each well, and the cells were incubated in an incubator for 1-3 h. Absorbance was measured at […] using a microplate reader, and the cell necrosis protection rate of the drug was calculated using the following formula:
Cell necrosis protection rate=[(X−C0)/(C−C0)]×100% • where C, C0, and X represent the average absorbance values of the solvent control group, the blank control group, and the drug treatment group, respectively. Finally, a cell viability curve was fitted using Graphpad Prism 5.0 software, and the EC50 value of the test compound for inhibiting necroptosis was calculated.
As to `COCCOCCOCCOCC(=O)Nc1nc2cc(-c3ccc4c(c3)c(C(=O)N[C@@H](C)c3ccc(F)cc3)cn4C)ccn2n1` [Compound 26], the EC50 (usually the concentration at which the effect is half-maximal) is less than 1 nM.
Then `C[C@H](NC(=O)c1cn(C)c2ccc(-c3ccn4nc(NC(=O)CN5CCC6(CC5)OCCO6)nc4c3)cc12)c1ccc(F)cc1` [Compound 27], with less than 1 nM.
As to `C[C@H](NC(=O)c1cn(C)c2ccc(-c3ccn4nc(NC(=O)CN5CCS(=O)(=O)CC5)nc4c3)cc12)c1ccc(F)cc1` [Compound 28], the EC50 was 1 to 10 nM.
For the compound `C[C@H](NC(=O)c1cn(C)c2ccc(-c3ccn4nc(NC(=O)CN5CC(C)(C#N)C5)nc4c3)cc12)c1ccc(F)cc1` [Compound 29], the EC50 was less than 1 nM.
Then `C[C@H](NC(=O)c1cn(C)c2ccc(-c3ccn4nc(NC(=O)CN5CCCOCC5)nc4c3)cc12)c1ccc(F)cc1` [Compound 30], with less than 1 nM.
As for `C[C@H](NC(=O)c1cn(C)c2ccc(-c3ccn4nc(NC(=O)C5(C(=O)O)CC5)nc4c3)cc12)c1ccc(F)cc1` [Compound 31], the figure is 10 to 100 nM; as for `C[C@H](NC(=O)c1cn(C)c2ccc(-c3ccn4nc(NC(=O)CN5CCOCC5C(=O)O)nc4c3)cc12)c1ccc(F)cc1` (stereo partly drawn) [Compound 33], 1000 to 10000 nM.
As for `C[C@H](NC(=O)c1cn(C)c2ccc(-c3ccn4nc(NC(=O)CN5CC(C#N)C5)nc4c3)cc12)c1ccc(F)cc1` [Compound 34], the figure is less than 1 nM.
Regarding `C[C@H](NC(=O)c1cn(C)c2ccc(-c3ccn4nc(NC(=O)CN5CCOC[C@@H]5CO)nc4c3)cc12)c1ccc(F)cc1` [Compound 35], the EC50 was less than 1 nM.
For the compound `CCN(CC)CC(=O)Nc1nc2cc(-c3ccc4c(c3)c(C(=O)N[C@@H](C)c3ccc(F)cc3)cn4C)ccn2n1` [Compound 36], the EC50 was less than 1 nM.
For the compound `C[C@H](NC(=O)c1cn(C)c2ccc(-c3ccn4nc(NC(=O)CN5CCC[C@H]5C(=O)O)nc4c3)cc12)c1ccc(F)cc1` [Compound 37], the EC50 fell in the range of 1 to 10 nM.
As for `C[C@H](NC(=O)c1cn(C)c2ccc(-c3ccn4nc(NC(=O)CN5CCC(N6CCOCC6)CC5)nc4c3)cc12)c1ccc(F)cc1` [Compound 38], the figure is less than 1 nM; as for `C[C@H](NC(=O)c1cn(C)c2ccc(-c3ccn4nc(NC(=O)CN5C[C@H]6C[C@@H]5CO6)nc4c3)cc12)c1ccc(F)cc1` [Compound 39], less than 1 nM; as for `C[C@H](NC(=O)c1cn(C)c2ccc(-c3ccn4nc(NC(=O)CN(C)C)nc4c3)cc12)c1ccc(F)cc1` [Compound 40], less than 1 nM.
Then `C[C@H](NC(=O)c1cn(C)c2ccc(-c3ccn4nc(NC(=O)CN5CC[C@H](O)C5)nc4c3)cc12)c1ccc(F)cc1` [Compound 41], with less than 1 nM.
`C[C@H](NC(=O)c1cn(C)c2ccc(-c3ccn4nc(NC(=O)CN5CC(F)(F)C5)nc4c3)cc12)c1ccc(F)cc1` [Compound 42]: the EC50 was less than 1 nM.
Then `C[C@H](NC(=O)c1cn(C)c2ccc(-c3ccn4nc(NC(=O)CN5CCSCC5)nc4c3)cc12)c1ccc(F)cc1` [Compound 43], with less than 1 nM; and `C[C@H](NC(=O)c1cn(C)c2ccc(-c3ccn4nc(NC(=O)CN5CCCC(CO)C5)nc4c3)cc12)c1ccc(F)cc1` (stereo partly drawn) [Compound 44], with 1 to 10 nM; and `CC1CN(CC(=O)Nc2nc3cc(-c4ccc5c(c4)c(C(=O)N[C@@H](C)c4ccc(F)cc4)cn5C)ccn3n2)CCO1` (stereo partly drawn) [Compound 45], with less than 1 nM.
In the case of `C[C@@H]1CN(CC(=O)Nc2nc3cc(-c4ccc5c(c4)c(C(=O)N[C@@H](C)c4ccc(F)cc4)cn5C)ccn3n2)C[C@H](C)O1` [Compound 46], the EC50 was less than 1 nM.
Then `C[C@H](NC(=O)c1cn(C)c2ccc(-c3ccn4nc(NC(=O)CN5CCC(F)(F)CC5)nc4c3)cc12)c1ccc(F)cc1` [Compound 47], with less than 1 nM; and `C[C@H](NC(=O)c1cn(C)c2ccc(-c3ccn4nc(NC(=O)Cn5ccnc5)nc4c3)cc12)c1ccc(F)cc1` [Compound 48], with 10 to 100 nM.
Then `C[C@H](NC(=O)c1cn(C)c2ccc(-c3ccn4nc(NC(=O)CN5CCC[C@@H](O)C5)nc4c3)cc12)c1ccc(F)cc1` [Compound 49], with 1 to 10 nM.
Then `C[C@H](NC(=O)c1cn(C)c2ccc(-c3ccn4nc(NC(=O)CN5CCN(C(=O)C6CC6)CC5)nc4c3)cc12)c1ccc(F)cc1` [Compound 50], with less than 1 nM; and `C[C@H](NC(=O)c1cn(C)c2ccc(-c3ccn4nc(NC(=O)CN5CCN(C)CC5)nc4c3)cc12)c1ccc(F)cc1` [Compound 51], with less than 1 nM; and `C[C@H](NC(=O)c1cn(C)c2ccc(-c3ccn4nc(NC(=O)Cn5ccnn5)nc4c3)cc12)c1ccc(F)cc1` [Compound 52], with less than 1 nM.
Take `CC(=O)N1CCN(CC(=O)Nc2nc3cc(-c4ccc5c(c4)c(C(=O)N[C@@H](C)c4ccc(F)cc4)cn5C)ccn3n2)CC1` [Compound 53]: the EC50 is less than 1 nM.
Then `C[C@H](NC(=O)c1cn(C)c2ccc(-c3ccn4nc(NC(=O)Cn5cncn5)nc4c3)cc12)c1ccc(F)cc1` [Compound 57], with 10 to 100 nM.
As for `C[C@H](NC(=O)c1cn(C)c2ccc(-c3ccn4nc(NC(=O)Cn5cccn5)nc4c3)cc12)c1ccc(F)cc1` [Compound 58], the figure is less than 1 nM.
As to `C[C@H](NC(=O)c1cn(C)c2ccc(-c3ccn4nc(NC(=O)CN5C6CC7CC(C6)C(O)C5C7)nc4c3)cc12)c1ccc(F)cc1` (stereo partly drawn) [Compound 59], the EC50 is less than 1 nM.
As for `C[C@H](NC(=O)c1cn(C)c2ccc(-c3ccn4nc(NC(=O)CN5CCOC[C@@H]5C)nc4c3)cc12)c1ccc(F)cc1` [Compound 60], the figure is less than 1 nM; as for `C[C@H](NC(=O)c1cn(C)c2ccc(-c3ccn4nc(NC(=O)CN5CC[C@H](CO)C5)nc4c3)cc12)c1ccc(F)cc1` [Compound 61], 1 to 10 nM; as for `C[C@H](NC(=O)c1cn(C)c2ccc(-c3ccn4nc(NC(=O)CN5CC[C@@H](CO)C5)nc4c3)cc12)c1ccc(F)cc1` [Compound 62], less than 1 nM.
Then `C[C@H](NC(=O)c1cn(C)c2ccc(-c3ccn4nc(NC(=O)CC(=O)O)nc4c3)cc12)c1ccc(F)cc1` [Compound 63], with 1000 to 10000 nM; and `C[C@H](NC(=O)c1cn(C)c2ccc(-c3ccn4nc(NC(=O)CN5CCN(C(=O)OC(C)(C)C)C[C@H]5C)nc4c3)cc12)c1ccc(F)cc1` [Compound 64], with less than 1 nM; and `C[C@H](NC(=O)c1cn(C)c2ccc(-c3ccn4nc(NC(=O)CNCCOCCO)nc4c3)cc12)c1ccc(F)cc1` [Compound 65], with less than 1 nM.
Then `C[C@H](NC(=O)c1cn(C)c2ccc(-c3ccn4nc(NC(=O)CNCC5CC5)nc4c3)cc12)c1ccc(F)cc1` [Compound 66], with less than 1 nM.
Consider `CC(C)NCC(=O)Nc1nc2cc(-c3ccc4c(c3)c(C(=O)N[C@@H](C)c3ccc(F)cc3)cn4C)ccn2n1` [Compound 67], for which the EC50 was less than 1 nM.
Then `COCCNCC(=O)Nc1nc2cc(-c3ccc4c(c3)c(C(=O)N[C@@H](C)c3ccc(F)cc3)cn4C)ccn2n1` [Compound 68], with less than 1 nM.
With `C[C@H](NC(=O)c1cn(C)c2ccc(-c3ccn4nc(NC(=O)CN5CCN(CCO)CC5)nc4c3)cc12)c1ccc(F)cc1` [Compound 70], the EC50 was less than 1 nM.
Then `C[C@H](NC(=O)c1cn(C)c2ccc(-c3ccn4nc(NC(=O)CN5CC6CCC(C5)O6)nc4c3)cc12)c1ccc(F)cc1` [Compound 71], with less than 1 nM.
Consider `C[C@H](NC(=O)c1cn(C)c2ccc(-c3ccn4nc(NC(=O)CN5CCOC[C@H]5C)nc4c3)cc12)c1ccc(F)cc1` [Compound 72], for which the EC50 was less than 1 nM.
As for `C[C@H](NC(=O)c1cn(C)c2ccc(-c3ccn4nc(NC(=O)CN5C6CCC5COC6)nc4c3)cc12)c1ccc(F)cc1` [Compound 73], the figure is less than 1 nM.
Then `C[C@H](NC(=O)c1cn(C)c2ccc(-c3ccn4nc(NC(=O)CN(C)CCO)nc4c3)cc12)c1ccc(F)cc1` [Compound 74], with less than 1 nM.
As for `C[C@H](NC(=O)c1cn(C)c2ccc(-c3ccn4nc(NC(=O)CN5CCOCC5)nc4c3)cc12)c1ccc(F)cc1` [Compound 75], the figure is less than 1 nM; as for `CCNCC(=O)Nc1nc2cc(-c3ccc4c(c3)c(C(=O)N[C@@H](C)c3ccc(F)cc3)cn4C)ccn2n1` [Compound 76], less than 1 nM.
As to `C[C@H](NC(=O)c1cn(C)c2ccc(-c3ccn4nc(NC(=O)CNC5CCOC5)nc4c3)cc12)c1ccc(F)cc1` (stereo partly drawn) [Compound 77], the EC50 is less than 1 nM.
As for `C[C@H](NC(=O)c1cn(C)c2ccc(-c3ccn4nc(NC(=O)CN(C)C)nc4c3)cc12)c1ccc(Cl)cc1` [Compound 78], the figure is less than 1 nM; as for `C[C@H](NC(=O)c1cn(C)c2ccc(-c3ccn4nc(NC(=O)CN5CC6CC5CO6)nc4c3)cc12)c1ccc(Cl)cc1` (stereo partly drawn) [Compound 79], less than 1 nM; as for `C[C@H](NC(=O)c1cn(C)c2ccc(-c3ccn4nc(NC(=O)CN5CC(F)(F)C5)nc4c3)cc12)c1ccc(Cl)cc1` [Compound 80], less than 1 nM.
Then `C[C@H](NC(=O)c1cn(C)c2ccc(-c3ccn4nc(NC(=O)CN5CCOC[C@H]5C)nc4c3)cc12)c1ccc(Cl)cc1` [Compound 81], with less than 1 nM.
